Laboratory results from patent US11312724B2 (ASCENTAGE PHARMA (SUZHOU) CO., LTD., priority 2021, dated 2022).

Assays:
[1] = system: MIA PaCa-2 cell; assay: Cell proliferation assay (Celltiter-Glo), MIA PaCa-2; format: cell-based; details: Homo sapiens, MIA PaCa-2, 72 h, 3 days
Protocol: (§1) Cell Proliferation Assay:
(§2) NCI-H358 cell and MIA PaCa-2 cell was cultured in RPMI-1640 supplemented with 10% FBS in humidified incubator at 37° C., 5% CO2. To asses the effect of Compounds of the Disclosure on cell proliferation, exponentially growing cells (5000 cells/well) were plated onto 96-well plates. After cell seeding, a representative Compounds of the Disclosure were added to the cell media (in concentrations ranging from 0 to 10 μM, 3/dilution series). After 3 days, 30 μL Celltiter-Glo reagent was added, and the luminescent signal was determined according to supplier's instruction. The dose response curves and IC50 values were generated using Prism.

[2] = system: NCI-H358 cell; assay: Cell proliferation assay (Celltiter-Glo), NCI-H358; format: cell-based; details: Homo sapiens, NCI-H358, 72 h, 3 days
Protocol: as §1, §2

IC50 [1] | IC50 [2] | SMILES
110 nM | 200 nM | C=CC(=O)N1CCN(c2nc(OC[C@@H]3CCCN3C)nc3c2CCC2(CCCc4ccc(F)cc42)C3)C[C@@H]1CC#N (stereo partly drawn) [Cpd. No. 11, 2-((2S)-1-acryloyl-4-(7-fluoro-2′-(((S)-1-methylpyrrolidin-2-yl)methoxy)-3,4,5′,8′-tetrahydro-2H,6′H-spiro[naphthalene-1,7′-quinazolin]-4′-yl)piperazin-2-yl)acetonitrile]
55 nM | 65 nM | C=CC(=O)N1CCN(c2nc(OC[C@@H]3CCCN3C)nc3c2CCC2(CCc4ccc(C)cc42)C3)C[C@@H]1CC#N (stereo partly drawn) [Cpd. No. 12, 2-((2S)-1-acryloyl-4-(6-methyl-2′-(((S)-1-methylpyrrolidin-2-yl)methoxy)-2,3,5′,8′-tetrahydro-6′H-spiro[indene-1,7′-quinazolin]-4′-yl)piperazin-2-yl)acetonitrile]
220 nM | 290 nM | C=C(F)C(=O)N1CCN(c2nc(OC[C@@H]3CCCN3C)nc3c2CCC2(CCCc4ccccc42)C3)C[C@@H]1CC#N (stereo partly drawn) [Cpd. No. 13, 2-((2S)-1-(2-fluoroacryloyl)-4-(2′-(((S)-1-methylpyrrolidin-2-yl)methoxy)-3,4,5′,8′-tetrahydro-2H,6′H-spiro[naphthalene-1,7′-quinazolin]-4′-yl)piperazin-2-yl)acetonitrile]
1670 nM | 1670 nM | C/C=C/C(=O)N1CCN(c2nc(OC[C@@H]3CCCN3C)nc3c2CCC2(CCCc4ccccc42)C3)C[C@@H]1CC#N (stereo partly drawn) [Cpd. No. 14, 2-((2S)-1-((E)-but-2-enoyl)-4-(2′-(((S)-1-methylpyrrolidin-2-yl)methoxy)-3,4,5′,8′-tetrahydro-2H,6′H-spiro[naphthalene-1,7′-quinazolin]-4′-yl)piperazin-2-yl)acetonitrile]
290 nM | 510 nM | CN(C)C/C=C/C(=O)N1CCN(c2nc(OC[C@@H]3CCCN3C)nc3c2CCC2(CCCc4ccccc42)C3)C[C@@H]1CC#N (stereo partly drawn) [Cpd. No. 15, 2-((2S)-1-((E)-4-(dimethylamino)but-2-enoyl)-4-(2′-(((S)-1-methylpyrrolidin-2-yl)methoxy)-3,4,5′,8′-tetrahydro-2H,6′H-spiro[naphthalene-1,7′-quinazolin]-4′-yl)piperazin-2-yl)acetonitrile]
2960 nM | 1900 nM | C=CS(=O)(=O)N1CCN(c2nc(OC[C@@H]3CCCN3C)nc3c2CCC2(CCCc4ccccc42)C3)C[C@@H]1CC#N (stereo partly drawn) [Cpd. No. 16, 2-((2S)-4-(2′-(((S)-1-methylpyrrolidin-2-yl)methoxy)-3,4,5′,8′-tetrahydro-2H,6′H-spiro[naphthalene-1,7′-quinazolin]-4′-yl)-1-(vinylsulfonyl)piperazin-2-yl)acetonitrile]
54 nM | 100 nM | C=CC(=O)N1CCN(c2nc(OCCCN(C)C)nc3c2CCC2(CCCc4ccccc42)C3)C[C@@H]1CC#N (stereo partly drawn) [Cpd. No. 17, 2-((2S)-1-acryloyl-4-(2′-(3-(dimethylamino)propoxy)-3,4,5′,8′-tetrahydro-2H,6′H-spiro[naphthalene-1,7′-quinazolin]-4′-yl)piperazin-2-yl)acetonitrile]
110 nM | 160 nM | C=CC(=O)N1CCN(c2nc(OC[C@@H]3CCCCN3C)nc3c2CCC2(CCCc4ccccc42)C3)C[C@@H]1CC#N (stereo partly drawn) [Cpd. No. 18, 2-((2S)-1-acryloyl-4-(2′-(((S)-1-methylpiperidin-2-yl)methoxy)-3,4,5′,8′-tetrahydro-2H,6′H-spiro[naphthalene-1,7′-quinazolin]-4′-yl)piperazin-2-yl)acetonitrile]
110 nM | 130 nM | C=CC(=O)N1CCN(c2nc(OCCCN3CCOCC3)nc3c2CCC2(CCCc4ccccc42)C3)C[C@@H]1CC#N (stereo partly drawn) [Cpd. No. 19, 2-((2S)-1-acryloyl-4-(2′-(3-morpholinopropoxy)-3,4,5′,8′-tetrahydro-2H,6′H-spiro[naphthalene-1,7′-quinazolin]-4′-yl)piperazin-2-yl)acetonitrile]
46 nM | 72 nM | C=CC(=O)N1CCN(c2nc(OC[C@@H]3CN(C)CCO3)nc3c2CCC2(CCCc4ccccc42)C3)C[C@@H]1CC#N (stereo partly drawn) [Cpd. No. 20, 2-((2S)-1-acryloyl-4-(2′-(((S)-4-methylmorpholin-2-yl)methoxy)-3,4,5′,8′-tetrahydro-2H,6′H-spiro[naphthalene-1,7′-quinazolin]-4′-yl)piperazin-2-yl)acetonitrile]
440 nM | 470 nM | C=CC(=O)N1CCN(c2nc(OC[C@@H]3CCCN3C)nc3c2CCC2(CCOc4ccccc42)C3)C[C@@H]1CC#N (stereo partly drawn) [Cpd. No. 21, 2-((2S)-1-acryloyl-4-(2′-(((S)-1-methylpyrrolidin-2-yl)methoxy)-5′,8′-dihydro-6′H-spiro[chromane-4,7′-quinazolin]-4′-yl)piperazin-2-yl)acetonitrile]
490 nM | 940 nM | C=CC(=O)N1CCN(c2nc(OC[C@@H]3CCCN3C)nc3c2CCC2(CCOc4c(Cl)cccc42)C3)C[C@@H]1CC#N (stereo partly drawn) [Cpd. No. 22, 2-((2S)-1-acryloyl-4-(8-chloro-2′-(((S)-1-methylpyrrolidin-2-yl)methoxy)-5′,8′-dihydro-6′H-spiro[chromane-4,7′-quinazolin]-4′-yl)piperazin-2-yl)acetonitrile]
740 nM | 1240 nM | C=CC(=O)N1CCN(c2nc(OC[C@@H]3CCCN3C)nc3c2CCC2(CCOc4c(Cl)cc(Cl)cc42)C3)C[C@@H]1CC#N (stereo partly drawn) [Cpd. No. 23, 2-((2S)-1-acryloyl-4-(6,8-dichloro-2′-(((S)-1-methylpyrrolidin-2-yl)methoxy)-5′,8′-dihydro-6′H-spiro[chromane-4,7′-quinazolin]-4′-yl)piperazin-2-yl)acetonitrile]
6 nM | 11 nM | C=CC(=O)N1CCN(c2nc(OC[C@@H]3CCCN3C)nc3c2CCC2(COCc4ccccc42)C3)C[C@@H]1CC#N (stereo partly drawn) [Cpd. No. 24, 2-((2S)-1-acryloyl-4-(2′-(((S)-1-methylpyrrolidin-2-yl)methoxy)-5′,8′-dihydro-6′H-spiro[isochromane-4,7′-quinazolin]-4′-yl)piperazin-2-yl)acetonitrile]
1280 nM | 1840 nM | C=CC(=O)N1CCN(c2nc(OC[C@@H]3CCCN3C)nc3c2CCC2(C3)CC(C)Oc3ccccc32)C[C@@H]1CC#N (stereo partly drawn) [Cpd. No. 25, 2-((2S)-1-acryloyl-4-(2-methyl-2′-(((S)-1-methylpyrrolidin-2-yl)methoxy)-5′,8′-dihydro-6′H-spiro[chromane-4,7′-quinazolin]-4′-yl)piperazin-2-yl)acetonitrile]
19 nM | 55 nM | C=CC(=O)N1CCN(c2nc(OC[C@@H]3CCCN3C)nc3c2CCC2(COCc4cccc(F)c42)C3)C[C@@H]1CC#N (stereo partly drawn) [Cpd. No. 27, 2-((2S)-1-acryloyl-4-(5-fluoro-2′-(((S)-1-methylpyrrolidin-2-yl)methoxy)-5′,8′-dihydro-6′H-spiro[isochromane-4,7′-quinazolin]-4′-yl)piperazin-2-yl)acetonitrile]
4780 nM | 2060 nM | C=CC(=O)N1CCN(c2nc(OC[C@@H]3CCCN3C)nc3c2CCC2(C3)CN(C)Cc3ccccc32)C[C@@H]1CC#N (stereo partly drawn) [Cpd. No. 30, 2-((2S)-1-acryloyl-4-(2-methyl-2′-(((S)-1-methylpyrrolidin-2-yl)methoxy)-2,3,5′,8′-tetrahydro-1H,6′H-spiro[isoquinoline-4,7′-quinazolin]-4′-yl)piperazin-2-yl)acetonitrile]
> 10000 nM | > 10000 nM | C=CC(=O)N1CCN(c2nc(OC[C@@H]3CCCN3C)nc3c2CCC2(C3)CS(=O)(=O)Cc3ccccc32)C[C@@H]1CC#N (stereo partly drawn) [Cpd. No. 31, 2-((2S)-1-acryloyl-4-(2′-(((S)-1-methylpyrrolidin-2-yl)methoxy)-2,2-dioxido-5′,8′-dihydro-6′H-spiro[isothiochromane-4,7′-quinazolin]-4′-yl)piperazin-2-yl)acetonitrile]
22 nM | 83 nM | C=CC(=O)N1CCN(c2nc(OC[C@@H]3CCCN3C)nc3c2CCC2(COC(C)c4ccccc42)C3)C[C@@H]1CC#N (stereo partly drawn) [Cpd. No. 32, 2-((2S)-1-acryloyl-4-(1-methyl-2′-(((S)-1-methylpyrrolidin-2-yl)methoxy)-5′,8′-dihydro-6′H-spiro[isochromane-4,7′-quinazolin]-4′-yl)piperazin-2-yl)acetonitrile]
30 nM | 45 nM | C=CC(=O)N1CCN(c2nc(OC[C@@H]3CCCN3C)nc3c2CCC2(COC(C(F)(F)F)c4ccccc42)C3)C[C@@H]1CC#N (stereo partly drawn) [Cpd. No. 33, 2-((2S)-1-acryloyl-4-(2′-(((S)-1-methylpyrrolidin-2-yl)methoxy)-1-(trifluoromethyl)-5′,8′-dihydro-6′H-spiro[isochromane-4,7′-quinazolin]-4′-yl)piperazin-2-yl)acetonitrile]
750 nM | 1350 nM | C=CC(=O)N1CCN(c2nc(OC[C@@H]3CCCN3C)nc3c2CCC2(COC(C)(C)c4ccccc42)C3)C[C@@H]1CC#N (stereo partly drawn) [Cpd. No. 34, 2-((2S)-1-acryloyl-4-(1,1-dimethyl-2′-(((S)-1-methylpyrrolidin-2-yl)methoxy)-5′,8′-dihydro-6′H-spiro[isochromane-4,7′-quinazolin]-4′-yl)piperazin-2-yl)acetonitrile]

SMILES | IC50 [1] | IC50 [2]
C=CC(=O)N1C2CCC1CN(c1nc(OC[C@@H]3CCCN3C)nc3c1CCC1(COCc4cccc(F)c41)C3)C2 (stereo partly drawn) [Cpd. No. 29, 1-(3-(5-fluoro-2′-(((S)-1-methylpyrrolidin-2-yl)methoxy)-5′,8′-dihydro-6′H-spiro[isochromane-4,7′-quinazolin]-4′-yl)-3,8-diazabicyclo[3.2.1]octan-8-yl)prop-2-en-1-one] | > 10000 nM | 8100 nM
